ChEMBL document CHEMBL1909046, “DrugMatrix in vitro pharmacology data”

Experiments:
[1] = target: Aldo-keto reductase family 1 member B1 (Rattus norvegicus, UniProt P07943); type: tissue-based, Lens of camera-type eye;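 also: inhibition of aldose reductase enzyme activity, measured with DL-glyceraldehyde as the substrate; in other assays of this panel Not Active means under 50% inhibition at 10 µM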
[2] = DRUGMATRIX: Glutamate, NMDA, Agonism radioligand binding (ligand: [3H] CGP-39653); type: cell membranes, Rattus norvegicus, Wistar, Cerebral cortex, Membrane; conditions: Not Active = under 50% inhibition at 10 µM
[3] = target: T1, Estrogen receptor (Homo sapiens, UniProt P03372); conditions: sf9; also: in other assays of this panel Not Active means under 50% inhibition at 10 µM
T1 sequence (P03372 whole entry): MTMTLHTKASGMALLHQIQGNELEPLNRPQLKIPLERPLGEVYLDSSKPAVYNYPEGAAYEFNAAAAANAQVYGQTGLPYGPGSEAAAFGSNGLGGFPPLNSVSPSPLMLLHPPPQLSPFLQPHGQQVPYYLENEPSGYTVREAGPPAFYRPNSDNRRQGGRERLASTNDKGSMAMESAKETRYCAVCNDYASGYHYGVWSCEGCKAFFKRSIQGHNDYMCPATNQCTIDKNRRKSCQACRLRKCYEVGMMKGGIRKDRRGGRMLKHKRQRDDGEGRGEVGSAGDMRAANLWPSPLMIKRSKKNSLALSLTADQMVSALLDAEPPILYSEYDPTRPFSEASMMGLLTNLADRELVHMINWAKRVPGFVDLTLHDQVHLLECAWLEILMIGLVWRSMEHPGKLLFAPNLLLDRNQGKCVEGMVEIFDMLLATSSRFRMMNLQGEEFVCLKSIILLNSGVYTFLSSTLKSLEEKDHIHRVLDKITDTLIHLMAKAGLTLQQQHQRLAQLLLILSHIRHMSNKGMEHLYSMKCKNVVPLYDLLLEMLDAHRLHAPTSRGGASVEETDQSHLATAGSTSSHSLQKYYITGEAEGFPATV

[4] = target: T2, Receptor-type tyrosine-protein phosphatase C (Homo sapiens, UniProt P08575); set-up: species or system Escherichia coli;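 also: inhibition of CD45 enzyme activity measured using DiFMUP as substrate; in other assays of this panel Not Active means under 50% inhibition at 10 µM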
T2 sequence (P08575 whole entry): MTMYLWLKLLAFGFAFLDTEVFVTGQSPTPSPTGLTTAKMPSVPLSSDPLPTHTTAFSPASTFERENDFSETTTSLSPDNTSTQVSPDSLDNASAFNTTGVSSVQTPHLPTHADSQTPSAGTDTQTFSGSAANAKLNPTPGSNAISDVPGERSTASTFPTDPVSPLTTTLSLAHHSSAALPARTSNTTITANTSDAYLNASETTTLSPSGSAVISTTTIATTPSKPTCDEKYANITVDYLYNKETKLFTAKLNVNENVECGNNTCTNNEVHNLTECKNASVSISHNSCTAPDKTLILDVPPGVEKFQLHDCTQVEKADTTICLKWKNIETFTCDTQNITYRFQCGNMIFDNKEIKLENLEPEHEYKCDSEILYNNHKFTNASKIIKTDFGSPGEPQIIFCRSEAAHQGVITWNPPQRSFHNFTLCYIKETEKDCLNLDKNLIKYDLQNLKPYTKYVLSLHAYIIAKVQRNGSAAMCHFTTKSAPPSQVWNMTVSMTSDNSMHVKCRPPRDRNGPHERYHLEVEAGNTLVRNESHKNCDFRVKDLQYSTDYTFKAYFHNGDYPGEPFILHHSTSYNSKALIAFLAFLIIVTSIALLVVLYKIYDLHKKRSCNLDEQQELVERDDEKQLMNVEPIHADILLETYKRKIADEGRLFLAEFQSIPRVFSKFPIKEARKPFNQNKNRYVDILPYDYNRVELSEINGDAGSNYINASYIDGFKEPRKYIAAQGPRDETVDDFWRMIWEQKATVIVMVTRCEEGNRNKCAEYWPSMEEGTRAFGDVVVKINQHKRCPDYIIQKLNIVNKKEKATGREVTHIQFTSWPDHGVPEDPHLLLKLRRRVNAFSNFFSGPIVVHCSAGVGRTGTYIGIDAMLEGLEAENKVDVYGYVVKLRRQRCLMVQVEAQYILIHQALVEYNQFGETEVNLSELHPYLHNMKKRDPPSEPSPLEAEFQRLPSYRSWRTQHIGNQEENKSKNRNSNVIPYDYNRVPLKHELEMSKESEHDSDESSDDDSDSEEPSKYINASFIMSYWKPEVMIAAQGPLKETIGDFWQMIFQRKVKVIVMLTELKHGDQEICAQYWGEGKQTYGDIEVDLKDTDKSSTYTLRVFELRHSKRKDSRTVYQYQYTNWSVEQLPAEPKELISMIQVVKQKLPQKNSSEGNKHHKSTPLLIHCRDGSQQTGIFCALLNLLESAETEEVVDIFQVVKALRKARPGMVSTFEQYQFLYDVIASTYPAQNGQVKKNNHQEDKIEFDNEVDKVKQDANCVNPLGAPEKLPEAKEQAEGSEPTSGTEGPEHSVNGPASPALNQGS

[5] = DRUGMATRIX: Sigma2 radioligand binding (ligand: [3H] Ifenprodil); type: cell membranes, Rattus norvegicus, Wistar, Brain, Membrane; conditions: Not Active = under 50% inhibition at 10 µM
[6] = target: T3, C-X-C chemokine receptor type 1 (Homo sapiens, UniProt P25024); also: in other assays of this panel Not Active means under 50% inhibition at 10 µM
T3 sequence (P25024 whole entry): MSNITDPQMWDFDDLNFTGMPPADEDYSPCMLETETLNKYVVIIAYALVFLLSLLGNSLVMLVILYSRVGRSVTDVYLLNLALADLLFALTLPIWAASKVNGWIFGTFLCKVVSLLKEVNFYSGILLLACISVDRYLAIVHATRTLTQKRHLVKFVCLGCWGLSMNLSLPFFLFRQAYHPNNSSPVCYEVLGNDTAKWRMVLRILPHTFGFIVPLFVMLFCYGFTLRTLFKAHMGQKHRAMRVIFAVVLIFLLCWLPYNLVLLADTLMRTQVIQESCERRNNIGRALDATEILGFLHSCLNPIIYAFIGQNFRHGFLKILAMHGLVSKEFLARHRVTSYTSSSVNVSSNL

[7] = target: Beta-1 adrenergic receptor (Homo sapiens, UniProt P08588); assay: DRUGMATRIX: Adrenergic beta1 radioligand binding (ligand: [125I] Cyanopindolol); type: cell membranes, CHO-K1, Membrane; conditions: cho-k1; Not Active = under 50% inhibition at 10 µM
[8] = target: T4, D(4) dopamine receptor (Homo sapiens, UniProt P21917); assay: DRUGMATRIX: Dopamine D4.2 radioligand binding (ligand: [3H] Spiperone); type: cell membranes, CHO-K1, Membrane; conditions: cho-k1; Not Active = under 50% inhibition at 10 µM
T4 sequence (P21917 whole entry): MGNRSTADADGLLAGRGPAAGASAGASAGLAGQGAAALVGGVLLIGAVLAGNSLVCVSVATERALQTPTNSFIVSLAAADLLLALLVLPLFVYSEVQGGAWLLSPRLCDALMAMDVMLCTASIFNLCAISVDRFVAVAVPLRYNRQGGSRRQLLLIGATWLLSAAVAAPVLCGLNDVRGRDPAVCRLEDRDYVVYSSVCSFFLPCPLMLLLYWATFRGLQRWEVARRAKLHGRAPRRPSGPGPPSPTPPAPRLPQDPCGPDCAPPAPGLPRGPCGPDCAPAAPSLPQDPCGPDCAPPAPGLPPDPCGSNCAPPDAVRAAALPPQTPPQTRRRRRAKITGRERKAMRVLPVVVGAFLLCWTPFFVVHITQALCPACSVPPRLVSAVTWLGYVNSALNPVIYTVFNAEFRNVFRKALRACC

Beta-1 adrenergic receptor, sequence (P08588 whole entry): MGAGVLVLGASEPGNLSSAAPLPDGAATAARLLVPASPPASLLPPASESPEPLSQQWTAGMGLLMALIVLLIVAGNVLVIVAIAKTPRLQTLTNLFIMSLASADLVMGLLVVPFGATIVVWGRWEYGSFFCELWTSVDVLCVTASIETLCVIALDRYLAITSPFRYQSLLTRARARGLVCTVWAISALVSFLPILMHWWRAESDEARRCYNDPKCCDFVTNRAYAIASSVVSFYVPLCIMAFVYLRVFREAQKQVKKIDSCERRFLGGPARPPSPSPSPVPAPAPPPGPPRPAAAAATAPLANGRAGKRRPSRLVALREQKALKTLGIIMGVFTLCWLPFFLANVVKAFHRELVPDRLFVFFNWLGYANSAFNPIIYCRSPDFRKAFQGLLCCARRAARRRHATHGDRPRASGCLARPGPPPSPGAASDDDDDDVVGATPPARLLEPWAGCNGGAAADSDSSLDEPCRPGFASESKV

OXALIPLATIN
Not Active: IC50 [1] | Ki [1] | IC50 [2] | Ki [2] | IC50 [3] | Ki [3] | IC50 [4] | Ki [4] | IC50 [5] | Ki [5] | IC50 [6] | Ki [6] | IC50 [7] | Ki [7] | IC50 [8] | Ki [8]
